Bridge positions count the residues as written; N and C are the ends. Square brackets hold non-standard residues; d marks the D form. Peptide text beside a SMILES is read from it. NMeF = CN[C@@H](Cc1ccccc1)C(=O)O; NMeNle = CCCC[C@H](NC)C(=O)O; NMeA = CN[C@@H](C)C(=O)O; Sar = CNCC(=O)O
Assays:
PD-L1 [1] = assay: differential scanning fluorimetry; type: binding; settings: DSF; for melting temperature of PD-L1 (Tm): PD-L1 alone Tm 37.6°C; for stabilization of PD-L1 against thermal induced unfolding: relative to PD-L1 alone (Tm 37.6°C)
PD-L1 [2] = assay: X-ray crystallography of PD-L1/peptide complexes; type: binding; settings: crystal structures of PD-L1/peptide-71 (2.5 Å) and PD-L1/peptide-57 (below 1 Å)

Structure (SMILES) | melting temperature of PD-L1 (Tm) (PD-L1 [1]) | stabilization of PD-L1 against thermal induced unfolding (PD-L1 [1]) | binding site on PD-L1 (PD-L1 [2])
CCCC[C@H]1C(=O)N(C)[C@@H](CCCC)C(=O)N[C@@H](CCCNC(=N)N)C(=O)N[C@H](C(=O)NCC(N)=O)CSCC(=O)N[C@@H](Cc2ccccc2)C(=O)N(C)[C@@H](C)C(=O)N[C@@H](CC(N)=O)C(=O)N2CCC[C@H]2C(=O)N[C@@H](Cc2c[nH]cn2)C(=O)N[C@@H](CC(C)C)C(=O)N(C)CC(=O)N[C@@H](Cc2c[nH]c3ccccc23)C(=O)N[C@@H](CO)C(=O)N[C@@H](Cc2c[nH]c3ccccc23)C(=O)N1C [peptide-57] ({CH2CO}-F[NMeA]NPHL[Sar]WSW[NMeNle][NMeNle]RCG-NH2; thioether N-14; N-terminus and C-terminus assumed) | 51.6 °C | 14 °C | bind to PD-L1 partially at the site of the PD-1 interaction
CCCC[C@H]1C(=O)N(C)CC(=O)N[C@@H](CC(=O)O)C(=O)N[C@@H](C(C)C)C(=O)N(C)[C@@H](Cc2ccccc2)C(=O)N[C@@H](Cc2ccc(O)cc2)C(=O)N(C)CC(=O)N[C@@H](Cc2c[nH]c3ccccc23)C(=O)N[C@@H](Cc2ccc(O)cc2)C(=O)N[C@@H](CC(C)C)C(=O)N[C@H](C(=O)NCC(N)=O)CSCC(=O)N[C@@H](Cc2ccccc2)C(=O)N(C)[C@@H](Cc2ccccc2)C(=O)N1C [peptide-71] ({CH2CO}-F[NMeF][NMeNle][Sar]DV[NMeF]Y[Sar]WYLCG-NH2; thioether N-13; N-terminus and C-terminus assumed) | 56.6 °C | 19 °C | bind to PD-L1 partially at the site of the PD-1 interaction

Reference: PMC6400216 (Angewandte Chemie (International ed. in English), 2017)
